Data published in patent US20080070846A1, “TREATING ACUTE EXACERBATIONS OF ASTHMA USING A KETOLIDE” (Aventis Pharmaceuticals Inc, priority 2004, published 2008).

Legend:
[1] = test system: children with an acute exacerbation of asthma; details: oral prednisone, after 7 days; pediatric, mean age 8.0 years; cited from earlier work
[2] = test system: adults with mild asthma exacerbations; details: after 16 days of tapering oral prednisone; from 73% at onset of treatment; cited from earlier work
[3] = test system: adult patients with acute asthma; details: after seven to ten days of oral prednisone; cited from earlier work
[4] = test system: adults following an acute asthma exacerbation; details: oral prednisone, over seven to ten days; cited from earlier work
[5] = test system: patients with acute exacerbations of asthma; assay: Morning home PEF recorded on diary cards; format: in vivo, human; details: patient-recorded; placebo 66.8 L/min
Procedure: (§1) Asthma symptoms are measured using a modified version of a previously published diary card symptom score in which patients rate the frequency and severity of symptoms on a 7-point Likert scale. [see Santanello N. C., Barber B. L., Reiss T. F, Friedman B. S., Juniper E. F., Zhang J., Measurement Characteristics of Two Asthma Symptom Diary Scales for Use in Clinical Trials. Eur. Respir. J. 1997; 10:646-651]. Daily patient diaries are also used to record asthma symptoms, study treatment dosing, albuterol use, and other concomitant medications. Patient's home PEF values are also recorded in triplicate twice daily.

[6] = test system: patients with acute exacerbations of asthma; assay: Asthma diary symptom scores in double-blind, randomized, placebo-controlled study; format: in vivo, human
Procedure: (§2) Patients are centrally randomized (1:1) using computer-generated codes to receive blinded treatment with either oral telithromycin 800 mg once daily (two 400 mg capsules) or placebo (two capsules identical to those containing active treatment) for ten days using a proprietary Interactive Voice Recognition System to balance the treatment assignments within each study center. The first clinic visit (Visit 1), occurring within 24 hours of initial presentation is considered to be the study baseline. At baseline, patients are randomized to telithromycin or placebo. Telephone contact is made at 24-72 hours post-randomization to review concomitant medications taken and adverse events. Visit 2 is at the end of treatment (Days 11-14), Visit 3 is a post-treatment visit (Day 28 [±3 days]), and Visit 4 is the final visit (Day 42 [±3 days]). At each visit, patients undergo respiratory examinations, pulmonary function tests, health outcome assessments, and have a review of adverse events. Vital signs and concomitant medications are also recorded. Spontaneous or induced sputum samples nasopharyngeal swabs, and serum for serology for atypical pathogens are collected at Visits 1 and 3. Patients receiving at least one dose of study treatment and having one primary efficacy endpoint value are included in the intention to treat (ITT) population.
as §1
(§3) Efficacy endpoints are analyzed using an analysis of covariance (ANCOVA) model using factors for treatment, study center (investigator), treatment-by-center interaction, and baseline as covariates. Longitudinal analyses are based on the average over the 6-week study period. The treatment group means and the between-group differences are estimated using the ANCOVA model and between-group tests are used to compare telithromycin with placebo. The primary efficacy assessment time point is Visit 2 (end of treatment; Days 11-14).
Improvements in asthma symptoms assessed by the patients during the ten days of study treatment are analyzed using analysis of variance (ANOVA)/ANCOVA. Time to 50% reduction of asthma symptoms is summarized for treatment groups using a Kaplan-Meier procedure.

[7] = test system: patients with acute exacerbations of asthma; assay: Tolerability and safety assessment (adverse-event recording); format: in vivo, human
Procedure: Clinical safety is assessed in all patients by adverse-event recording and standard monitoring. Patients who receive at least one dose of […] and at least one safety assessment during treatment are considered evaluable for safety. All spontaneously reported adverse events and those identified by investigator observation are recorded and evaluated in terms of severity and causality.

[8] = test system: patients with acute exacerbations of asthma; assay: In-clinic pulmonary function tests (PEF, FEV1, FVC, FEF25-75%); format: in vivo, human
Procedure: as §2
PEF in liter/min, FEV1 in liters, FVC in liters, and FEF25-75% in liters/sec are recorded at clinic visits and are performed according to American Thoracic Society (ATS) standards. [see American Thoracic Society. Standardization of Spirometry. Am. J. Respir. Crit. Care Med. 1995; 152: 1107-1136].
as §3
In the models used, treatment effect is estimated while adjusting for the factor of center and for baseline values as covariates. This adjusted model accounts for the difference in the number of patients enrolled at each center. All mean data for efficacy outcomes are presented as least square (LS) means as they result from this adjusted model.

C. pneumoniae = details: mice with acute C. pneumoniae infection; cited from earlier work
asthmatic patients = details: cited from earlier work

SMILES: C[C@]12C=CC(=O)C=C1CC[C@@H]1[C@@H]2C(=O)C[C@@]2(C)[C@H]1CC[C@]2(O)C(=O)CO [prednisone]
- mean increase in FEF25-75% [1]: 0.41 L/s
- mean increase in FEV1 [1]: 0.37 L
- mean increase in FVC [1]: 0.45 L
- mean increase in PEF [1]: 78 L/min
- PEF % predicted after treatment [2]: 85%
- PEF improvement [3]: 46 L/min
- FEV1 increase, measured after bronchodilator use [4]: 0.55 L
- PEF increase, measured after bronchodilator use [4]: 77 L/min

SMILES: CC[C@H]1OC(=O)[C@H](C)C(=O)[C@H](C)[C@@H](O[C@@H]2O[C@H](C)C[C@H](N(C)C)[C@H]2O)[C@](C)(OC)C[C@@H](C)C(=O)[C@H](C)[C@H]2N(CCCCn3cnc(-c4cccnc4)c3)C(=O)O[C@]12C [telithromycin]
- improvement in morning home PEF from baseline over the treatment period (mean) [5]: 78.3 L/min
- median time to a 50% reduction in symptoms ([6]; Kaplan-Meier, placebo 8 days, P=0.031): 5 days
- mean change in symptom score from baseline over the study period ([6]; entire 6-week observation period, 800 mg once daily for ten days): −51%
- mean percent reduction in symptom severity from baseline to the end of treatment ([6]; oral 800 mg once daily for ten days, added to usual care, ITT N=126): −51%
- proportion of patients with symptom-free days during the treatment period ([6]; placebo 8%, P=0.006): 16%
- mean difference between treatments in change in symptom score over the study period ([6]; telithromycin vs placebo, 6-week period, 95% CI −24.75, −0.89%, P=0.035): −13%
- mean difference between treatments in percent reduction in symptom severity, baseline to end of treatment ([6]; telithromycin vs placebo, 95% CI −36.64, −7.90%, P=0.003): −22%
- tolerability ([7]; 800 mg once daily for ten days): well tolerated
- TEAEs considered possibly related to treatment, % of patients ([7]; 132 patients evaluable for safety): 20.5%
- frequency of TEAEs ([7]; 132 patients evaluable for safety, placebo 39.7%): 38.6%
- diarrhea possibly related to treatment ([7]; placebo 3.8%): 9.8%
- Mean change from baseline to end of treatment, FEF25-75% ([8]; 800 mg/day for ten days, N=126): 0.85 L/s
- Mean change from baseline to end of treatment, FVC ([8]; 800 mg/day for ten days, N=126): 0.58 L
- Mean change from baseline to end of treatment, FEV1 ([8]; 800 mg/day for ten days, N=126, LS mean, Visit 2): 0.63 L
- Mean change from baseline to end of treatment, PEF ([8]; 800 mg/day for ten days, N=126, in-clinic): 115.8 L/min
- mean improvement in FEV1, subgroup with infection at baseline ([8]; C. pneumoniae and/or M. pneumoniae infection at baseline, 61 telithromycin patients): 0.67 L
- mean improvement in FEV1, subgroup without evidence of infection ([8]; no evidence of C. pneumoniae/M. pneumoniae infection, 44 telithromycin patients): 0.65 L
- difference between treatments in FEV1 improvement, subgroup with infection at baseline ([8]; telithromycin vs placebo, 95% CI 0.11, 0.47 L, P=0.002): 0.29 L
- difference between treatments in FEV1 improvement, subgroup without evidence of infection ([8]; telithromycin vs placebo, 95% CI −0.17, 0.52 L, P=0.309): 0.18 L
- Difference between treatments in mean change, FEV1 ([8]; telithromycin vs placebo, P=0.001): 0.29 L
- Difference between treatments in mean change, FEF25-75% ([8]; telithromycin vs placebo, P=0.004): 0.40 L/s
- Difference between treatments in mean change, FVC ([8]; telithromycin vs placebo, P=0.006): 0.27 L
- Difference between treatments in mean change, PEF ([8]; telithromycin vs placebo, P=0.036): 26.9 L/min
- culture and PCR positivity in the lungs (C. pneumoniae): reduce culture and PCR positivity

SMILES: CC[C@H]1OC(=O)[C@H](C)[C@@H](O[C@H]2C[C@@](C)(OC)[C@@H](O)[C@H](C)O2)[C@H](C)[C@@H](O[C@@H]2O[C@H](C)C[C@H](N(C)C)[C@H]2O)[C@](C)(OC)C[C@@H](C)C(=O)[C@H](C)[C@@H](O)[C@]1(C)O [clarithromycin]
- severity of bronchial hyperresponsiveness (asthmatic patients): reduce the severity of bronchial hyperresponsiveness
